Key:
PPARδ = experiment: Skin barrier biomarker gene expression, real-time RT-PCR, keratinocyte monolayer; type: cell-based, human; settings: gene expression level, keratinocytes treated 24 hours; Control C KGM 100%; concentration differs per example
Experimental: (§1) An in vitro model was employed, using monolayer human dermal keratinocytes culture (KGM). Two controls were tested: the medium and inflammatory cytokines interleukin (IL-1b).
(§2) Skin Barrier: • Biomarkers: ABCA12, Involucrin, PPARδ • Using different concentration of ingredients to treat the keratinocyte for 24 hours • Collect the cells and prepare total RNA from the treated cells • Using Real-time RT-PCT to detect different barrier function related biomarker's gene expression level • Comparative Benchmark: Vitamin D3 (cholecalciferol) in three different concentrations
PPARδ is Peroxisome proliferator-activated receptor, also known as NR1C2. It is a nuclear receptor that in humans is encoded by the PPARD gene. […] Generally, the higher expression, the better skin barrier function is.

ABCA12 = experiment: as above; type: cell-based, human; settings: gene expression level, keratinocytes treated 24 hours; Control C KGM 100%; concentration differs per example
Experimental: as §1, §2
ABCA12 is also known as ATP-binding cassette transporter 12. It is a protein that in humans is encoded by the ABCA12 gene. The ABCA12 gene is active in some types of skin cells. The ABCA12 protein appears to be essential for normal development of the skin, which provides a barrier between the body and its surrounding environment. It plays an important role in transporting lipids (free fat acids) in cells that make up the outermost layer of skin (the epidermis). Generally, the higher expression, the better skin barrier function is.

Involucrin = experiment: as above; type: cell-based, human; settings: gene expression level, keratinocytes treated 24 hours; Control C KGM 100%; concentration differs per example
Experimental: as §1, §2
Involucrin is a protein component of human skin. It's a biomarker for keratinocyte differentiation. In binding the protein loricrin, involucrin contributes to the formation of a cell envelope that protects corneocytes in the skin stratum corneum. The higher expression, the better skin barrier function is.

[1] = tested on: human dermal keratinocytes; experiment: MTT assay, cell viability of PMA-treated keratinocytes; type: cell-based; settings: co-treated with PMA, amount (wt. %) differs per example, Control A medium 100%
From the text: The MTT assay is a colorimetric assay for assessing cell viability, cell proliferation, and/or cytotoxicity. NAD(P)H-dependent cellular oxidoreductase enzymes may, under defined conditions, reflect the number of viable cells present. These enzymes are capable of reducing the tetrazolium dye MTT 3-(4,5-dimethylthiazol-2-yl)-2,5-diphenyltetrazolium bromide to insoluble formazan, which has a purple color. MTT assay can also be used to measure cytotoxicity (loss of viable cells) or cytostatic activity (shift from proliferative to resting status) of potential medicinal agents and toxic materials.
Controls A and B described above for the IL-8 Assay were also employed in this test. The mitigating effect of the test samples on the effect of Control B on the keratinocytes was measured. More specifically, while Control B has a negative effect on cell viability, cell proliferation, and/or cytotoxicity, this mitigation of this negative effect was determined by measuring the reduction of MTT.
The following steps were followed: Once the liquid was removed from the wells for the IL-8 Assay described above, 100 μl/well of 0.5 mg/ml of MTT in phenol red-free DMEM (cell culture medium) was added into each of the 96-well plates. After incubating 1 hour at 37° C., all liquid was removed (MTT solution) from the wells of the culture plate. Then 100 μl of DMSO was added to each well to completely dissolve the purple product. Absorption was measured using a plate reader at 550 nm wavelength.

IL-8 = IL-8 ELISA, PMA-induced IL-8 in human dermal keratinocytes; type: cell-based; settings: niacinamide in cell culture medium, co-treated with PMA; amount (wt. %) differs per example; Control A medium 100%, Control B PMA 0.0%
From the text: Interleukin 8 (IL-8) is a chemokine and proinflammatory cytokine produced by macrophages and other cell types such as epithelial cells. It is secreted from keratinocytes in skin in response to inflammatory stimuli. IL-8 is secreted and is an important mediator of the immune reaction in the innate immune system response. IL-8 overexpressed is a biomarker of skin irritation. […] No irritation is expected, and therefore Control A provides a baseline. […] Decreased 11-8 expression reflects the ingredient's anti-irritation activity. In order to carry out the test method, an assay kit was employed that was obtained from R&D Systems: Human CXCL8/IL-8 Duoset ELISA Development Kit. The following steps were followed: 1. Coat EIA high binding 96-well plate with IL-8 capture antibody overnight at room temperature. 2. Prepare all reagents, standard dilutions, and samples. 3. Wash the coated plate with 350 μL/well of washing buffer 4 times, then adding 300 μL/well of blocking solution incubating 1 hour at room temperature. 4. Repeat washing step with 350 μL/well of wash buffer (4 times). 5. Add 100 μL, of Standard, control, or sample to each well. Cover with a plate sealer, and incubate at room temperature for 2 hours. 6. Aspirate each well and wash, repeating the process 3 times for a total of 4 washes. 7. Add 100 μL, of detection IL-8 antibody to each well. Cover with a new plate sealer, and incubate at room temperature for 2 hours. 8. Aspirate and wash 4 times. 9. Add 100 μL, Biotin-Strepavidin conjugate to each well, incubating 20 minutes at room temperature. 10. Aspirate and wash 4 times. 11. Add 100 μL, substrate Solution to each well. Incubate at room temperature for 20 minutes, making sure to protect the wells from the light. 12. Add 50 μL, of Stop Solution to each well. Data collected—using a colorimeter, absorbance was measured at 450 nanometers (nm) within 30 minutes. Wavelength correction was set to 570 nm.

TNF-α = TNF-α ELISA, as IL-8 method, PMA-treated human dermal keratinocytes; type: cell-based; settings: niacinamide in cell culture medium, co-treated with PMA; amount (wt. %) differs per example; Control A medium 100%, Control B PMA 0.0%
From the text: For Control A, human dermal keratinocytes are left untreated. No irritation is expected, and therefore Control A provides a baseline. For Control B, IL-8 is induced in human dermal keratinocytes by applying phorbol 12-myristate 13-acetate (PMA). For all other samples, the human dermal keratinocytes are co-treated with PMA and a composition containing the ingredient of interest. Decreased 11-8 expression reflects the ingredient's anti-irritation activity.
The following steps were followed: 1. Coat EIA high binding 96-well plate with IL-8 capture antibody overnight at room temperature. 2. Prepare all reagents, standard dilutions, and samples. 3. Wash the coated plate with 350 μL/well of washing buffer 4 times, then adding 300 μL/well of blocking solution incubating 1 hour at room temperature. 4. Repeat washing step with 350 μL/well of wash buffer (4 times). 5. Add 100 μL, of Standard, control, or sample to each well. Cover with a plate sealer, and incubate at room temperature for 2 hours. 6. Aspirate each well and wash, repeating the process 3 times for a total of 4 washes. 7. Add 100 μL, of detection IL-8 antibody to each well. Cover with a new plate sealer, and incubate at room temperature for 2 hours. 8. Aspirate and wash 4 times. 9. Add 100 μL, Biotin-Strepavidin conjugate to each well, incubating 20 minutes at room temperature. 10. Aspirate and wash 4 times. 11. Add 100 μL, substrate Solution to each well. Incubate at room temperature for 20 minutes, making sure to protect the wells from the light. 12. Add 50 μL, of Stop Solution to each well. Data collected—using a colorimeter, absorbance was measured at 450 nanometers (nm) within 30 minutes. Wavelength correction was set to 570 nm.
Samples were tested similarly to the method described above, except that TNF-α was used instead of IL-8.

| SMILES | PPARδ (PPARδ) [%] | ABCA12 (%) (ABCA12) | Involucrin (Involucrin) [%] | also measured |
| --- | --- | --- | --- | --- |
| C=C1CC[C@H](O)C/C1=C/C=C1\CCC[C@]2(C)[C@@H]([C@H](C)CCCC(C)C)CC[C@@H]12 [Comparative 1, Vitamin D3 (cholecalciferol), reference compound] | 752 | 58 | 384 | – |
| C=C1CC[C@H](O)C/C1=C/C=C1\CCC[C@]2(C)[C@@H]([C@H](C)CCCC(C)C)CC[C@@H]12 [Comparative 2, Vitamin D3 (cholecalciferol), reference compound] | 334 | 45 | 208 | – |
| C=C1CC[C@H](O)C/C1=C/C=C1\CCC[C@]2(C)[C@@H]([C@H](C)CCCC(C)C)CC[C@@H]12 [Comparative 3, Vitamin D3 (cholecalciferol), reference compound] | 238 | 42 | 406 | – |
| CCCCCCCCCCCCCC(=O)O[C@@H]1[C@@H](C)[C@@]2(O)[C@@H](C=C(CO)C[C@]3(O)C(=O)C(C)=C[C@@H]23)[C@@H]2C(C)(C)[C@]12OC(C)=O [Control B, phorbol 12-myristate 13-acetate, reference compound] | – | – | – | Cell Viability (%) ([1]; avenanthramide series): 95%; Cell Viability (%) ([1]; niacinamide series): 95% |
| NC(=O)c1cccnc1 [Example 16, Niacinamide] | – | – | – | IL-8 Inhibition (%) (IL-8): 0.0% |
| NC(=O)c1cccnc1 [Example 17, Niacinamide] | – | – | – | IL-8 Inhibition (%) (IL-8): 16.53% |
| NC(=O)c1cccnc1 [Example 18, Niacinamide] | – | – | – | IL-8 Inhibition (%) (IL-8): 16.64% |
| NC(=O)c1cccnc1 [Example 19, Niacinamide] | – | – | – | IL-8 Inhibition (%) (IL-8): 20.86% |
| NC(=O)c1cccnc1 [Example 20, Niacinamide] | – | – | – | IL-8 Inhibition (%) (IL-8): 28.85% |
| NC(=O)c1cccnc1 [Example 21, Niacinamide] | – | – | – | IL-8 Inhibition (%) (IL-8): 33.20% |
| NC(=O)c1cccnc1 [Example 22, Niacinamide] | – | – | – | IL-8 Inhibition (%) (IL-8): 32.04% |
| NC(=O)c1cccnc1 [Example 23, Niacinamide] | – | – | – | TNF-α Inhibition (%) (TNF-α): 28.2% |
| NC(=O)c1cccnc1 [Example 24, Niacinamide] | – | – | – | TNF-α Inhibition (%) (TNF-α): 29.6% |
| NC(=O)c1cccnc1 [Example 25, Niacinamide] | – | – | – | TNF-α Inhibition (%) (TNF-α): 28.6% |
| NC(=O)c1cccnc1 [Example 26, Niacinamide] | – | – | – | TNF-α Inhibition (%) (TNF-α): 45.6% |
| NC(=O)c1cccnc1 [Example 27, Niacinamide] | – | – | – | TNF-α Inhibition (%) (TNF-α): 45.1% |
| NC(=O)c1cccnc1 [Example 28, Niacinamide] | – | – | – | TNF-α Inhibition (%) (TNF-α): 52.7% |
| NC(=O)c1cccnc1 [Example 29, Niacinamide] | – | – | – | Cell Viability (%) ([1]; niacinamide series): 97% |
| NC(=O)c1cccnc1 [Example 30, Niacinamide] | – | – | – | Cell Viability (%) ([1]; niacinamide series): 95% |
| NC(=O)c1cccnc1 [Example 31, Niacinamide] | – | – | – | Cell Viability (%) ([1]; niacinamide series): 99% |
| NC(=O)c1cccnc1 [Example 32, Niacinamide] | – | – | – | Cell Viability (%) ([1]; niacinamide series): 87% |
| NC(=O)c1cccnc1 [Example 33, Niacinamide] | 82 | 41 | 156 | – |
| NC(=O)c1cccnc1 [Example 34, Niacinamide] | 88 | 120 | 192 | – |
| NC(=O)c1cccnc1 [Example 35, Niacinamide] | 136 | 192 | 441 | – |
| NC(=O)c1cccnc1 [Example 36, Niacinamide] | 164 | 806 | 817 | – |
| NC(=O)c1cccnc1 [Example 37, Niacinamide] | 378 | 447 | 1589 | – |
| NC(=O)c1cccnc1 [Example 38, Niacinamide] | 863 | 499 | 1656 | – |

— patent US11998767B2, “Hand sanitizers with improved aesthetics and skin-conditioning to encourage compliance with hand hygiene guidelines” (GOJO Industries, Inc., priority 2014, dated 2024)
